These are literature values, as cited in patent publication US20120083772A1, “CORNEAL TREATMENT SYSTEM AND METHOD” (CURVERIGHT LLC, priority 2010, published 2012).

For the data set, the system named is living cells.

On to `OO` [hydrogen peroxide], for which the “concentration that can stop the proliferation of living cells” value is 1000 nM.
